Data on seven compounds can be found in patent US6593374B2, “Tubulin binding ligands and corresponding prodrug constructs” (Baylor University, priority 2000, dated 2003).

SMILES strings stand for the structures. ≈ marks a conversion by molar mass, not a printed value. Like-named read-outs stand apart in the source and are kept apart here.

In one data set the test system is tumor vasculature. The following applies: cited from earlier work.
In data set [1] the test system is purified tubulin. The following applies: previously described compounds; cited from earlier work.
For data set [2] the following is noted: cited from earlier work.
For data set [3], the system named is T1, purified tubulin.
T1 construct: other: purified bovine brain tubulin 1.5 mg/ml, 15 min preincubati
Description: Inhibition of tubulin polymerization assay. The following applies: for IC50: read-out: IC50, in vitro inhibition of tubulin polymerization, purified bovine brain tubulin 1.5 mg/ml, 15 min preincubation at 37° C., GTP-induced, 350 nm. The format is biochemical, bovine. As for the experimental part:
After the incubation period, the reaction was cooled and GTP was added to induce tubulin polymerization. Polymerization was then monitored in a Gilford spectrophotometer at 350 nm. The final reaction mixtures (0.25 ml) contained 1.5 mg/ml tubulin, 0.6 mg/ml microtubule-associated proteins (MAPs), 0.5 mM GTP, 0.5 mM MgCl2, 4% DMSO and 0.1M 4-morpholineethanesulfonate buffer (MES, pH 6.4).

The next data set concerns NCI 60 cell line panel. Nature of the data set: NCI 60 cell line panel. Format: cell-based. The following applies: Homo sapiens.
The test system of a further data set is human cancer cells. Nature of the data set: Cytotoxicity against human cancer cells. Format: cell-based.
The subject of a further data set is MHEC. Nature of the data set: In vivo tumor growth control in scid mice after MHEC inoculation. The following applies: female scid mice, single dose ip 400 mg/kg, one week after MHEC inoculation (1×10^6/mouse). The method, then:
Female scid mice were single dose ip administered with CA-4P, and benzo[b]thiophene phosphate prodrug at 400 mg/kg (i.e., MDT of CA-4P) after one week of MHEC inoculation (1×10^6/mouse) (FIG. 20). Studies were carried out through a collaboration with professors Ronald W. Pero and Klaus Edvardsen, University of Lund, Sweden

The next data set deals with DU-145. Nature of the data set: Growth inhibition, human cancer cell line DU-145 (SRB). The format is cell-based. To be noted: Prostate, 48 hours. The method, then: (§1) Several of the compounds described in this application were evaluated in terms of growth inhibitory activity against several human cancer cell lines, including pancreas, breast, CNS, lung-NSC, colon, and prostate lines. The assay used is described in Monks et al.^32 Briefly, the cell suspensions, diluted according to the particular cell type and the expected target cell density (5,000-40,000 cells per well based on cell growth characteristics), were added by pipet (100 μl) to 96-well microtiter plates. Inoculates were allowed a preincubation time of 24-28 hours at 37° C. for stabilization. Incubation with the inhibitor compounds lasted for 48 hours in 5% CO2 atmosphere and 100% humidity. Determination of cell growth was done by in situ fixation of cells, followed by staining with a protein-binding dye, sulforhodamine B (SRB), which binds to the basic amino acids of cellular macromolecules. The solubilized stain was measured spectrophotometrically.

A further data set deals with SF-295. Description: Growth inhibition, human cancer cell line SF-295 (SRB). Format: cell-based. To be noted: CNS, 48 hours. The method, then:
as §1

The next data set has as its system KM20L2. Nature of the data set: Growth inhibition, human cancer cell line KM20L2 (SRB). Format: cell-based. To be noted: 48 hours. The method, then:
as §1

In the next data set the test system is MCF-7. Nature of the data set: Growth inhibition, human cancer cell line MCF-7 (SRB). The format is cell-based. The following applies: 48 hours. As for the experimental part: as §1
The subject of another data set is NCI-H460. Description: Growth inhibition, human cancer cell line NCI-H460 (SRB). Format: cell-based. The following applies: Lung-NSC, 48 hours. As for the experimental part: as §1
The subject of a further data set is BXPC-3. Nature of the data set: Growth inhibition, human cancer cell line BXPC-3 (SRB). The following applies: Pancreas-a, 48 hours. The format is cell-based. The method, then:
as §1

The subject of the next data set is SF-268. Description: Growth inhibition, human cancer cell line SF-268 (SRB). The following applies: CNS Gliobl, 48 hours. Format: cell-based. The method, then: as §1
The next data set deals with P388 leukemia cells. Nature of the data set: Cytotoxicity assay with P388 leukemia cells. The format is cell-based.
In another data set the test system is OVCAR-3. Description: Growth inhibition, human cancer cell line OVCAR-3 (SRB). The format is cell-based. To be noted: Ovarian, 48 hours. The method, then: as §1
Another data set concerns FADU. Nature of the data set: Growth inhibition, human cancer cell line FADU (SRB). Format: cell-based. To be noted: Pharynx-sqam, 48 hours. As for the experimental part: as §1
[4] abbreviates: Homo sapiens, KM-20L2, Colon, read-out: GI50.
[5] abbreviates: Homo sapiens, MCF7, Breast adn, read-out: GI50.

The term GI50 denotes the concentration giving 50% growth inhibition. As usually defined, the IC50 is the midpoint of a concentration-inhibition curve.

As for `COc1ccc(/C=C\c2cc(OC)c(OC)c(OC)c2)cc1OP(=O)([O-])[O-].[Na+].[Na+]` [CSA-4 prodrug], in the data set with tumor vasculature, the “destruction of tumor vasculature (in words)” value is “very active in terms of tumor vasculature destruction”.

For the compound `COc1ccc(/C=C\c2cc(OC)c(OC)c(OC)c2)cc1O` [Combretastatin A-4], the “inhibition of tubulin polymerization (in words)” value (shortened to “inhibition”) in the data set with purified tubulin [1] is given as “potent inhibitor of tubulin polymerization”. In data set [2], the “water solubility (in words)” value was “poor water solubility”. Besides, in the data set on tumor vasculature, the “destruction of tumor vasculature (in words)” value is recorded as “does not demonstrate destruction of tumor vasculature”.

With `COc1ccc2scc(OC)c2c1OC` [Compound 1, 3,4,5-trimethoxybenzo[b]thiophene], the “inhibition” value with purified tubulin [3] is on record as “inhibition of tubulin polymerization”. Further, in the data set with NCI 60 cell line panel, the GI50 came out at 263 nM. For the same compound, the “cytotoxicity (in words)” value in the data set with human cancer cells was “potent cytotoxicity”.

For `COc1ccc2c(C(=O)c3cc(OC)c(OC)c(OC)c3)c(-c3ccc(OC)c(OP(=O)([O-])[O-])c3)sc2c1.[Na+].[Na+]` [Compound 3, 3-(3′,4′,5′-trimethoxybenzoyl)-2-(3′-sodiumphosphate-4′-methoxyphenyl)-6-methoxybenzo[b]thiophene], the “tumor growth control (FIG. 20)” value in the data set on MHEC was “remarkable activity in terms of tumor growth control”. The IC50 in the data set with purified tubulin [3] was 1000 to 4000 nM. For the same compound, the GI50 was determined as 0.045 µg/mL with DU-145; 0.11 µg/mL in the data set on SF-295; 0.22 µg/mL with KM20L2 (Colon); 0.028 µg/mL in the data set with MCF-7 (Breast adn); 0.035 µg/mL in the data set with NCI-H460; 0.35 µg/mL with BXPC-3.

Consider `COc1ccc2c(c1)CCCC2(O)c1cc(OC)c(OC)c(OC)c1` (stereo not drawn) [Compound 14A], for which the IC50 in the data set on purified tubulin [3] lay in the range of 1000 to 4000 nM. For the same compound, the GI50 with DU-145 (Homo sapiens, read-out: GI50) amounted to 0.38 µg/mL (≈ 1.1 µM); with KM20L2 (setting [4]), 0.11 µg/mL (≈ 0.319 µM); in the data set with MCF-7 (setting [5]), 0.043 µg/mL (≈ 0.125 µM); with SF-268, 0.67 µg/mL (≈ 1.95 µM); in the data set with NCI-H460 (Homo sapiens, read-out: GI50) it was 0.16 µg/mL (≈ 0.465 µM); with BXPC-3 (Homo sapiens, read-out: GI50) it was 0.13 µg/mL (≈ 0.377 µM).

Take `CCOP(=O)(Nc1c(OC)ccc2c1CCC=C2c1cc(OC)c(OC)c(OC)c1)OCC` [Compound 16, 6-methoxy-1-(3′,4′,5′-trimethoxyphenyl)-5-diethylphosphoramidate-3,4-dihydronaphthalene]: the IC50 in the data set on purified tubulin [3] is above 40000 nM. Also, the GI50 in the data set on DU-145 (Homo sapiens, read-out: GI50) is 2.8 µg/mL (≈ 5.86 µM); with SF-295 (Homo sapiens, read-out: GI50), 2.2 µg/mL (≈ 4.61 µM); in the data set on KM20L2 (setting [4]), 2.5 µg/mL (≈ 5.24 µM); with MCF-7 (setting [5]), 3 µg/mL (≈ 6.28 µM); in the data set with NCI-H460 (Homo sapiens, read-out: GI50), 3.4 µg/mL (≈ 7.12 µM); with BXPC-3 (Homo sapiens, read-out: GI50), 2 µg/mL (≈ 4.19 µM). In addition, in the data set with P388 leukemia cells, the “ED50 (effective dosage required to inhibit 50% of cell growth)” value came out at 20.4 µg/mL.

Regarding `C#CC=CC#CC(=O)c1cc(OC)c(OC)c(OC)c1` [Compound 30, 1-(3,4,5-trimethoxybenzoyl)-(Z)-3-ene-1,5-hexadiyne], in the data set with purified tubulin [3], the “inhibition” value is given as “excellent inhibition of tubulin polymerization”. The IC50 in the data set with purified tubulin [3] lay in the range of 2000 to 4000 nM. For the same compound, the GI50 in the data set with DU-145 (Homo sapiens, read-out: GI50) stood at 0.54 µg/mL (≈ 2 µM); in the data set on SF-295 (Homo sapiens, read-out: GI50), 1.7 µg/mL (≈ 6.29 µM); in the data set with OVCAR-3 it was 0.53 µg/mL (≈ 1.96 µM); with FADU, 0.95 µg/mL (≈ 3.51 µM); with NCI-H460 (Homo sapiens, read-out: GI50), 1.7 µg/mL (≈ 6.29 µM); in the data set with BXPC-3 (Homo sapiens, read-out: GI50), 1.4 µg/mL (≈ 5.18 µM). Further, in the data set on human cancer cells, the “cytotoxicity (in words)” value was “strong cytotoxicity”.
